According to PMC4183655, “Discovery and Optimization of Small-Molecule Ligands for the CBP/p300 Bromodomains” (Journal of the American Chemical Society, 2014):
Like-named read-outs stand apart in the source and are kept apart here. One block for each molecule: values may come before it.

Assays:
CBP BRD = conditions: cited from earlier work
p53–CBP interaction = conditions: at 50 μM; cited from earlier work
[1] = system: p53-induced p21 activation; conditions: luciferase reporter-gene assay; read-out: Inhibition of p53-induced p21 activation IC50; cited from earlier work
CBP [2] = conditions: cited from earlier work
BRD4(1) [3] = conditions: cited from earlier work
[4] = system: GFP-tagged 3 × CBP BRD construct; assay: Fluorescence recovery after photo-bleaching (FRAP) assay; conditions: HeLa cells, SAHA-treated, compound 0.1 μM
BRD4(1) [5] = target: T1, BRD4(1) (Homo sapiens, UniProt O60885); assay: DSF (ΔTm) thermal stability assay; format: binding; conditions: compound concentration 10 μM, mean ± SEM (number of measurements)
CBP [6] = target: T2, CBP (Homo sapiens, UniProt Q92793); assay: DSF (ΔTm) thermal stability assay; format: binding; conditions: compound concentration 10 μM, mean ± SEM (number of measurements)
T2 sequence (Q92793 1085-1192 limits assumed): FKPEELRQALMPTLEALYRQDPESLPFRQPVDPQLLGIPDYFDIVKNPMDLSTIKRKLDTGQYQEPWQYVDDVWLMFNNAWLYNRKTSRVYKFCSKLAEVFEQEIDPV

CBP [7] = target: T2, CBP; assay: Peptide displacement AlphaScreen; format: binding
BRD4(1) [8] = target: T1, BRD4(1); assay: Peptide displacement AlphaScreen; format: binding
ATAD2 [9] = target: T3, ATAD2 (Homo sapiens, UniProt Q6PL18); assay: Peptide displacement AlphaScreen; format: binding
T3 construct: using recombinant BRDs as surrogates of full-length protein
T3 sequence (Q6PL18 980-1092 limits assumed): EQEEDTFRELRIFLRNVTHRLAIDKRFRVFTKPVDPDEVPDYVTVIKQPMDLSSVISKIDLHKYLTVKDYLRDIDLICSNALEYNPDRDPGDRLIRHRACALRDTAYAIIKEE

p300 = target: T4, p300 (Homo sapiens, UniProt Q09472); assay: Isothermal titration calorimetry (ITC); conditions: from ITC Kd values
T4 sequence (Q09472 1049-1156 limits assumed): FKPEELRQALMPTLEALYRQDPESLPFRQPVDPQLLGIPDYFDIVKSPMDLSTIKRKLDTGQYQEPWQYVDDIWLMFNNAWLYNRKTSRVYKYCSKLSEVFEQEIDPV

BRD4(1) [10] = target: T1, BRD4(1); assay: Isothermal titration calorimetry (ITC)
ATAD2 [11] = target: T3, ATAD2; assay: DSF (ΔTm) thermal stability assay; format: binding; conditions: compound 10 µM
CBP [12] = target: T2, CBP; assay: Isothermal titration calorimetry (ITC)
[13] = mean ± SEM (number of measurements), read-out: CBP AlphaScreen pIC50 (converted)

- ΔTm at 10 µM (BRD4(1) [5]): 2.9 °C
- ΔTm at 10 µM (CBP [6]): 6.3 °C
- IC50 (CBP [7]; [13]): 501 nM
SMILES: Cc1noc(C)c1-c1ccc2c(c1)nc(CCc1ccccc1)n2CCN(C)C [Compound 12]

- ΔTm at 10 µM (CBP [6]): 0.27 °C
- IC50 (CBP [7]; read-out: AlphaScreen IC50 CBP): 460000 nM
SMILES: COC(Cn1c(CCc2ccccc2)nc2cc(-c3c(C)noc3C)ccc21)OC [Compound 13]

- ΔTm at 10 µM (BRD4(1) [5]): 2.6 °C
- ΔTm at 10 µM (CBP [6]): 4.4 °C
- IC50 (CBP [7]; read-out: AlphaScreen IC50 CBP): 570 nM
- IC50 (BRD4(1) [8]): 22000 nM
SMILES: Cc1noc(C)c1-c1ccc2c(c1)nc(CCc1ccccc1)n2CCN1CCC1 [Compound 14]

- ΔTm at 10 µM (BRD4(1) [5]): 2.1 °C
- DSF ΔTm BRD4(1) (BRD4(1) [5]; 10 µM): 2.7 °C
- ΔTm at 10 µM (CBP [6]): 3.9 °C
- DSF ΔTm CBP (CBP [6]; 10 µM): 6.5 °C
- IC50 (ATAD2 [9]): 42000 nM
- Selectivity for p300 over BRD4(1) (p300): 2.7 fold
- IC50 (CBP [7]; [13]): 158 nM
- IC50 (CBP [7]; read-out: AlphaScreen IC50 CBP): 820 nM
- Kd (BRD4(1) [10]; ITC Kd BRD4(1), 15 °C): 950 ± 44 nM
- Selectivity for CBP over BRD4(1) (BRD4(1) [10]; from ITC Kd values): 3.0 fold
- IC50 (BRD4(1) [8]): 9800 nM
- ΔTm at 10 µM (ATAD2 [11]): 0.16 °C
SMILES: Cc1noc(C)c1-c1ccc2c(c1)nc(CCc1ccccc1)n2CCN1CCOCC1 [Compound 17]
- FRAP half-time of fluorescence recovery (t1/2), GFP-tagged 3× CBP BRD [4]: 0.66 s

- ΔTm at 10 µM (BRD4(1) [5]): 4 °C
- ΔTm at 10 µM (CBP [6]): 6.5 °C
- IC50 (CBP [7]; read-out: AlphaScreen IC50 CBP): 750 nM
- IC50 (BRD4(1) [8]): 7500 nM
SMILES: Cc1noc(C)c1-c1ccc2c(c1)nc(CCc1ccccc1)n2CCN1CCNCC1 [Compound 19]

- ΔTm at 10 µM (BRD4(1) [5]): 3.9 °C
- ΔTm at 10 µM (CBP [6]): 6.6 °C
- IC50 (CBP [7]; read-out: AlphaScreen IC50 CBP): 440 nM
- IC50 (BRD4(1) [8]): 9500 nM
SMILES: Cc1noc(C)c1-c1ccc2c(c1)nc(CCc1ccccc1)n2CCN1CCSCC1 [Compound 20]

- ΔTm at 10 µM (CBP [6]): 7.4 °C
- ITC N (molar binding ratio of the ligand-protein interaction), CBP (CBP [12]): 1.02 ± 0.00208
- ITC ∆G, CBP (CBP [12]): -9.63 kcal/mol
- ITC ∆H, CBP (CBP [12]): -9.70 ± 0.0399 kcal/mol
- ITC 9T∆S, CBP (CBP [12]; At T = 298.15 K): 0.0674 kcal/mol
- Kd (CBP [12]; ITC Ka, CBP): 49.5 nM
- ITC N (molar binding ratio of the ligand-protein interaction), BRD4(1) (BRD4(1) [10]): 0.987 ± 0.0033
- ITC ∆G, BRD4(1) (BRD4(1) [10]): -8.24 kcal/mol
- ITC ∆H, BRD4(1) (BRD4(1) [10]): -8.74 ± 0.0402 kcal/mol
- ITC 9T∆S, BRD4(1) (BRD4(1) [10]; At T = 298.15 K): 0.501 kcal/mol
- Kd (BRD4(1) [10]; ITC Ka, BRD4(1)): 546 nM
SMILES: Cc1ccc(CCc2nc3cc(-c4c(C)noc4C)ccc3n2CCN2CCOCC2)cc1 [Compound 25]

The remaining lines, values behind:

SMILES: CC(=O)n1c2c(c3ccccc31)CCCC2=O [Compound 1]
- Kd (CBP BRD): 19600 nM
- Effect on the p53–CBP interaction in a competition assay (p53–CBP interaction): block

SMILES: Cc1cc(/N=N/c2cc(S(=O)(=O)O)c(C)cc2C)c(N)cc1O [Compound 2]
- IC50 [1]: 5000 nM

SMILES: COc1ccc2c(c1)N(CCCNC(=O)c1cccc3c1N[C@H](C)C(=O)N3)CCC2 [Compound 4]
- Kd (CBP BRD): 390 nM

SMILES: Cc1noc(C)c1-c1ccc2nc[nH]c2c1 [Compound 5]
- CBP pIC50 (CBP [2]): 5.4
- BRD4(1) pIC50 (BRD4(1) [3]): 5.2

SMILES: Cc1noc(C)c1-c1ccc2ncn(Cc3ccc(C#N)cc3)c2c1 [Compound 6]
- CBP pIC50 (CBP [2]): < 4.0
- FRAP half-time of fluorescence recovery (t1/2), GFP-tagged 3× CBP BRD [4]: 0.74 s
- BRD4(1) pIC50 (BRD4(1) [3]): 6.7

SMILES: Cc1noc(C)c1-c1ccc2c(c1)ncn2Cc1ccc(Cl)cc1 [Compound 7]
- CBP pIC50 (CBP [2]): 5.7

SMILES: Cc1noc(C)c1-c1ccc2c(c1)nc(CC(C)(C)C)n2CCN(C)C [Compound 8]
- ΔTm at 10 µM (BRD4(1) [5]): 3.2 °C
- ΔTm at 10 µM (CBP [6]): 4.5 °C
- IC50 (CBP [7]; [13]): 501 nM
